Experimental data from patent US12134607B2, “Crystals of tetrahydronaphthyl urea derivative” (MOCHIDA PHARMACEUTICAL CO., LTD., priority 2017, dated 2024).
≈ marks a conversion by molar mass, not a printed value. Read-outs that look alike come from different tables or passages of the source.

Key:
[1] = Pharmacokinetic study, single oral dose in rats; type: in vivo
Experimental: (Pharmacology Experiment 5): Pharmacokinetic Study
Plasma sample obtained by centrifugation of blood (12000×g, for 5 minutes, at 4° C.) was measured to determine plasma concentration of the test compound using high performance liquid chromatography/mass spectrometry. Similarly, concentrations of standard solutions containing the test compound at known concentrations (0.001, 0.002, 0.005, 0.01, 0.02, 0.05, 0.1, 0.2, 0.5, 1, 2, and 5 μg/mL) were measured. And then, the plasma concentration (μg/mL) of the compound (1) was calculated from the prepared calibration curve to obtain the maximum plasma concentration (Cmax (μg/mL)) and the area under the plasma concentration-time curve (AUC (μg·hr/mL)). Measurement conditions can be appropriately adjusted by a person skilled in the art.

[2] = Determination of equilibrium solubility in phosphate buffer solution with pH 6.8; type: physicochemical; conditions: pH 6.8 phosphate buffer, mean value of three measurements
Description: (Test Example 1) Determination of Equilibrium Solubility (Determination of Solubility in Phosphate Buffer Solution with pH 6.8)
Each of the equilibrium solubilities (solubility in phosphate buffer solution with pH 6.8) of Type I (Example 2), III (Example 3), V (Example 4) and VI crystals (Example 5) of 1-((1R,2R)-2-hydroxy-4,4-dimethyl-1,2,3,4-tetrahydronaphthalen-1-yl)-3-(5-methyl-6-(2-methylpyrimidin-5-yl)-2-phenylpyridin-3-yl)urea obtained in the above (Example 2) to (Example 5) was determined as follows:
Water was added a weighed potassium dihydrogen phosphate of 2.7 g to make 100 mL volume to prepare 0.2 mol/L potassium dihydrogen phosphate solution. Water was added a weighed disodium hydrogen phosphate […] of 7.2 g to make 100 mL volume to prepare 0.2 mol/L disodium hydrogen phosphate solution. A pH 6.8 phosphate buffer solution was prepared by diluting a mixture of 0.2 mol/L potassium dihydrogen phosphate solution (14.8 mL) and 0.2 mol/L disodium hydrogen phosphate solution (10.0 mL) with water (173.6 mL).
Approximately 1 mg of the each crystal from (Example 2) to (Example 5) was weighed into a screw tube, and a pH 6.8 phosphate buffer solution (1 mL) was added. An isothermal shaker (M-BR-022UP) was used to incubate the sample at 37° C. and 1000 rpm for 24 hours. 100 μL solution were sampled at 1, 2, 6, and 24 hours after the start of incubation, and were filtered using a centrifuge (HITACHI, Himac cF 9RX, at 25° C., at 1500 rpm, for 30 seconds) with a filter (Millipore: Multiscreen, MSSLBPC10) so as to remove insoluble materials. A 20 μL of the filtrate was quantified, and diluted with a solution (180 μL, pH 9.0) of 20 vol % tetrahydrofuran and 80 vol % ammonium bicarbonate aqueous solution (10 mM). A 10 μL of the prepared solution was quantified, and diluted with a solution (190 μL, pH 9.0) of 20 vol % tetrahydrofuran and 80 vol % ammonium bicarbonate aqueous solution (10 mM). The prepared solution was analyzed by ultra performance liquid chromatography (UPLC) under the following measurement conditions, and the concentration of the compound in the solution was calculated based on a previously prepared calibration curve. Three times of measurements were made for each example compound, and the mean values and standard deviations of the three measurements are shown as a result in Table 6.
<UPLC measurement conditions> Equipment: ACQUITY UPLC H-Class (Waters) Detector: PDA (200-500 nm) Column: BEH C18 2.1×50 mm Measurement wavelength: 270 nm Column temperature: 40° C. Injection amount: 10 μL Mobile phase: • Solvent A, acetonitrile; • Solvent B, 10 mM ammonium bicarbonate aqueous solution (pH 9.0) Gradient conditions: […]

Storage stability test = type: physicochemical; conditions: for Moisture absorption: during the storage period; for Chemical and physical stability over the test period: storage for 1 month, result in words
Experimental: For the stability test, approximately 20 mg of the test sample was stored at 25° C./60% RH or at 40° C./75% RH in open or closed condition for 1 month using a small environmental tester SH-641 (manufactured by Espec), and changes in purity and in crystalline form were observed.
For purity measurement, equipment of Waters ACQUITY UPLC H-Class (manufactured by Waters) and column of Waters ACQUITY BEH C18 (particle diameter […], size 2.1×50 mm) are used. For the mobile phase, 10 mmol/L ammonium bicarbonate buffer pH 9.0 and acetonitrile were used; and the test sample solution at 100 μg/mL in the mixture solvent of THF (tetrahydrofuran):10 mmol/L ammonium bicarbonate buffer (20:80) was prepared.
(Test Example 2) Storage Stability Test
The type I (Example 2), III (Example 3), V (Example 4) and VI (Example 5) crystals (each about 20 mg) of 1-((1R,2R)-2-hydroxy-4,4-dimethyl-1,2,3,4-tetrahydronaphthalen-1-yl)-3-(5-methyl-6-(2-methylpyrimidin-5-yl)-2-phenylpyridin-3-yl)urea obtained in the above Examples 2 to 5 were stored in glass bottles under the respective conditions described in Table 7. After completion of the storage period, the retrieved sample was confirmed on the purity by high performance liquid chromatography and on the crystal form by powder X-ray diffraction analysis as in the Examples.

[3] = Photostability test according to ICH Q1B; type: physicochemical
Experimental: (Test Example 3) Photostability Test
The type I (Example 2), III (Example 3), V (Example 4), and VI (Example 5) crystals (each about 20 mg) of 1-((1R,2R)-2-hydroxy-4,4-dimethyl-1,2,3,4-tetrahydronaphthalen-1-yl)-3-(5-methyl-6-(2-methylpyrimidin-5-yl)-2-phenylpyridin-3-yl)urea obtained in the above Examples 2 to 5 were placed in a transparent plastic container and covered, and were subjected to photostability test according to the ICH Q1B (Guidelines on Photostability Testing of New Active Substances and Medicinal Products) described in Table 8 (Here, the photostability test samples were stored at about 25° C. under separate lamps which respectively emits visible light and UV-A light so that the total light exposure should be 1.2 million lux hours and 200 W hours/m^2 or more, respectively. A 5-day study should be designated as “0.5 ICH” and a 10-day study as “1 ICH”). […] After completion of the test, the retrieved sample was confirmed on the purity by high performance liquid chromatography and on the crystal form by powder X-ray diffraction analysis as in the Examples.

[4] = 25° C./60% RH, closed for 1 month
[5] = 25° C./60% RH, open for 1 month
[6] = 40° C./75% RH, closed for 1 month
[7] = 40° C./75% RH, open for 1 month
[8] = Shielded from light by aluminum foil, 0.5 ICH
[9] = Shielded from light by aluminum foil, 1 ICH
[10] = Shielded from light by aluminum foil, Before the test
[11] = male Crl:CD (SD) rats, oral single dose 600 mg/kg in 0.5 w/v % methylcellulose 400

Row | SMILES | Chemical purity (%) (Storage stability test; [4]) | Crystalline form after completion of storage period (Storage stability test; [4]) | Chemical purity (%) (Storage stability test; [5]) | Crystalline form after completion of storage period (Storage stability test; [5]) | Chemical purity (%) (Storage stability test; [6]) | Crystalline form after completion of storage period (Storage stability test; [6]) | Chemical purity (%) (Storage stability test; [7]) | Crystalline form after completion of storage period (Storage stability test; [7]) | Chemical purity (%) (Storage stability test; Before the test) | Crystalline form after completion of storage period (Storage stability test; Before the test) | Chemical purity (%) ([3]; Exposure, 0.5 ICH (5-day)) | Crystalline form after completion of storage period ([3]; Exposure, 0.5 ICH (5-day)) | Chemical purity (%) ([3]; Exposure, 1 ICH (10-day)) | Crystalline form after completion of storage period ([3]; Exposure, 1 ICH (10-day)) | Chemical purity (%) ([3]; Exposure, Before the test) | Crystalline form after completion of storage period ([3]; Exposure, Before the test) | Chemical purity (%) [3, 8] [%] | Crystalline form after completion of storage period [3, 8] | Chemical purity (%) [3, 9] [%] | Crystalline form after completion of storage period [3, 9] | other results
1 | Cc1ncc(-c2nc(-c3ccccc3)c(NC(=O)N[C@@H]3c4ccccc4C(C)(C)C[C@H]3O)cc2C)cn1 [Example 2, 1-((1R,2R)-2-hydroxy-4,4-dimethyl-1,2,3,4-tetrahydronaphthalen-1-yl)-3-(5-methyl-6-(2-methylpyrimidin-5-yl)-2-phenylpyridin-3-yl)urea] | 99.8 | Type I crystal | 99.8 | Type I crystal | 99.8 | Type I crystal | 99.8 | Type I crystal | 99.8 | Type I crystal | 99.2 | Type I crystal | 98.9 | Type I crystal | 99.8 | Type I crystal | 99.8 | Type I crystal | 99.8 | Type I crystal | AUC ([1]; male, Crl:CD (SD), rat, plasma, po, 600 mg/kg, oral single dose 600 mg/kg in 0.5 w/v % methylcellulose 400, read-out: Area Under Plasma Concentration (AUC)): 561 µg·h/mL; Cmax ([1]; male, Crl:CD (SD), rat, plasma, po, 600 mg/kg, oral single dose 600 mg/kg in 0.5 w/v % methylcellulose 400, read-out: Maximum Plasma Concentration (Cmax)): 29700 ng/mL; Solubility ([2]; 37° C.): 33.2 µg/mL (≈ 67.3 µM); Moisture absorption (Storage stability test): no moisture absorption was observed; Chemical and physical stability over the test period (Storage stability test): chemically and physically stable; Chemical purity (%) [3, 10]: 99.8%; Crystalline form after completion of storage period [3, 10]: Type I crystal; Stability against light ([3]; result in words, listed as type I crystal): stable against light
2 | Cc1ncc(-c2nc(-c3ccccc3)c(NC(=O)N[C@@H]3c4ccccc4C(C)(C)C[C@H]3O)cc2C)cn1 [Example 4, 1-((1R,2R)-2-hydroxy-4,4-dimethyl-1,2,3,4-tetrahydronaphthalen-1-yl)-3-(5-methyl-6-(2-methylpyrimidin-5-yl)-2-phenylpyridin-3-yl)urea] | 99.8 | Type V crystal | 99.8 | Type V crystal | 99.8 | Type V crystal | 99.8 | Type V crystal | 99.8 | Type V crystal | 99.8 | Type V crystal | 99.8 | Type V crystal | 99.9 | Type V crystal | 99.9 | Type V crystal | 99.9 | Type V crystal | Area Under Plasma Concentration (AUC) [1, 11]: 473 µg·h/mL; Maximum Plasma Concentration (Cmax) [1, 11]: 26900 ng/mL; Solubility ([2]; 37° C.): 60.1 µg/mL (≈ 122 µM); Moisture absorption (Storage stability test): no moisture absorption was observed; Chemical and physical stability over the test period (Storage stability test): chemically and physically stable; Chemical purity (%) [3, 10]: 99.9%; Crystalline form after completion of storage period [3, 10]: Type V crystal; Stability against light ([3]; result in words, listed as type V crystal): stable against light
3 | Cc1ncc(-c2nc(-c3ccccc3)c(NC(=O)N[C@@H]3c4ccccc4C(C)(C)C[C@H]3O)cc2C)cn1 [Example 5, 1-((1R,2R)-2-hydroxy-4,4-dimethyl-1,2,3,4-tetrahydronaphthalen-1-yl)-3-(5-methyl-6-(2-methylpyrimidin-5-yl)-2-phenylpyridin-3-yl)urea] | 99.9 | Type VI crystal | 99.9 | Type VI crystal | 99.9 | Type VI crystal | 99.9 | Type VI crystal | 99.8 | Type VI crystal | 99.7 | Type I crystal | 99.5 | Type I crystal | 99.8 | Type I crystal | 99.8 | Type I crystal | 99.8 | Type I crystal | Solubility ([2]; phosphate buffer solution pH 6.8, 37 °C, pH 6.8, aqueous buffer, thermodynamic from solid, read-out: Solubility): 41.1 µg/mL (≈ 83.3 µM); Crystal form change during storage (Storage stability test; storage (open system)): transferred to the type I crystal; Chemical purity (%) [3, 10]: 99.8%; Crystalline form after completion of storage period [3, 10]: Type VI crystal; Crystal form change during photostability tests ([3]; result in words): transferred to the type I crystal; Stability against light ([3]; result in words, listed as type VI crystal): unstable against light
